From publication PMC8504577, “Evaluation of a Clinically Relevant Drug–Drug Interaction Between Rosuvastatin and Clopidogrel and the Risk of Hepatotoxicity” (Frontiers in Pharmacology, 2021)
Read-outs that look alike come from different tables or passages of the source.

Tests used:
OATP1B1 [1] = conditions: ref Tamraz et al. (2013), cited from earlier work
[2] = cited from earlier work
[3] = parameters: method as in Tornio et al. (2014); conditions: ref Tornio et al. (2014); cited from earlier work
[4] = for Imax,u, unbound steady-state plasma peak concentration: fu×I1
[5] = Plasma pharmacokinetic study in rats; conditions: for AUC0–12h: rat plasma
Description: For the plasma pharmacokinetic study, 16 rats were randomly assigned into four groups (n = 4, each group, groups I to IV) and received oral (p.o.) administrations as oral gavage of CP (27 mg/kg) or the same volume of vehicle control for 20 days. Then, the rats were made to fast overnight before dosing but with free access to water. On day 21, rats in group I were treated with a p.o. dose as oral gavage of CP at 27 mg/kg and a single intravenous (i.v.) dose of RSV at 5 mg/kg. Rats in group II were treated with a p.o. dose as oral gavage of vehicle control and a single i.v. dose of RSV at 5 mg/kg. Rats in group Ⅲ were treated with a p.o. dose as oral gavage of CP at 27 mg/kg and a p.o. dose as oral gavage of RSV at 5 mg/kg. Rats in group Ⅳ were treated with a p.o. dose as oral gavage of vehicle control and a p.o. dose as oral gavage of RSV at 5 mg/kg. Blood samples (0.15 ml) were collected at 0, 1, 2, 5, 15, 30, 60, 120, 180, 360, 480, 600, and 720 min after administration of the i.v. dose of the RSV group and at 0, 5, 30, 60, 120, 180, 360, 480, 600, and 720 min for the p.o. dose as oral gavage of the RSV group. After each sampling, a volume of 0.15 ml physiologic saline solutions was administered to sustain isotonic fluid balance. Plasma samples were harvested by using a centrifuge and then stored at −80°C until analysis by LC-MS/MS.
A Shimadzu LC-30AD liquid chromatography system (Shimadzu, Kyoto, Japan) and an API4000 triple quadruple tandem mass spectrometer (Applied Biosystems/Sciex, Framingham, MA, United States) coupled with an ESI source was used for the LC-MS/MS analysis of in vivo samples. The separation was carried out on an Agilent Extend C18 column (1.8 µm, 4.6 mm × 30 mm, Agilent Technologies). The mobile phase consisting of acetonitrile (A) and water (B: 1 mM ammonium acetate and 1% (V/V) formic acid). […] The flow rate was 1 ml/min and the gradient elution method was as follows: 0.01 min (10% A)-0.4 min (10% A), 0.8 min (95% A)-2.0 min (95% A), and 2.3 min (10% A)-2.5 min (stop).
(§1) Phoenix WinNonlin® 7.1 (Pharsight Corporation, Mountain View, CA, United States) was used to calculate the pharmacokinetic parameters by the noncompartmental method. IC50 values were obtained by a computer-generated nonlinear least squares fit using GraphPad Prism 8.1 (GraphPad Software, San Diego, CA, United States). Statistical analysis was performed using SPSS ver. 22.0 (IBM, Chicago, IL, United States). The results are presented as mean ± S.D., unless otherwise stated. After testing for the homogeneity of variance, statistical analysis was performed with a one-way ANOVA followed by the LSD post hoc test or unpaired Student’s t-test. A probability (p) of less than 0.05, 0.01, and 0.001 was considered to be statistically significant, highly significant, and extremely significant, respectively.

[6] = human; ref Ayalasomayajula et al., 2007; Itkonen et al., 2015; cited from earlier work
OATP1B1 [7] = target: T1, OATP1B1 (Homo sapiens, UniProt Q9Y6L6); test: cell-based; conditions: 100 μM
T1 sequence (Q9Y6L6 1-691): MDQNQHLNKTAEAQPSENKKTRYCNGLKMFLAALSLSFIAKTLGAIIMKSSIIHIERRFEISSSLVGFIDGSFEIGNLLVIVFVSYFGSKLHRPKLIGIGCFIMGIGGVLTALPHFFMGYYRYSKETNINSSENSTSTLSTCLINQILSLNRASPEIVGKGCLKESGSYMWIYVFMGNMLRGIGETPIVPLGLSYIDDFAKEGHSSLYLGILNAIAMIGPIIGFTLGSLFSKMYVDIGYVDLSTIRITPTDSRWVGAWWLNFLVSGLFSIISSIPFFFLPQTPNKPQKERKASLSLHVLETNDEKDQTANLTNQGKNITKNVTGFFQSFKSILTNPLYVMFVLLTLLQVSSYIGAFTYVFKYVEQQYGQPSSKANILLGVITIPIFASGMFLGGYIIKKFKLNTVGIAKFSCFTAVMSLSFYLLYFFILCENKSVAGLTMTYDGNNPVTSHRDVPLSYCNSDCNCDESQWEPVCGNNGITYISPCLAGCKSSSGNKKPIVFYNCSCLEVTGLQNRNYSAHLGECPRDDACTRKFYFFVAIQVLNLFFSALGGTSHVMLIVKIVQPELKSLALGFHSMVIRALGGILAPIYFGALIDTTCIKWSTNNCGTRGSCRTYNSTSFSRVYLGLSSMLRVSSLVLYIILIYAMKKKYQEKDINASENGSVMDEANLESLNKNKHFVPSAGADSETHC
Description: (§2) The OATP1B1, OATP1B3, and mock cells were cultured in the DMEM medium containing 10% fetal bovine serum, penicillin–streptomycin solution (100 U/mL and 0.1 mg/ml), and 0.5 mg/ml geneticin at 37°C in the presence of 5% CO2. The cells were seeded in a 24-well plate at a density of 4×10^5 cells/well and grown for 80–90% confluence. […] After washing the cells three times with transporter buffer at 4°C, the cells were lysed with liquid nitrogen. The lysates were precipitated with methanol and centrifuged at 12,000 rpm at 4°C for 5 min. The supernatant was analyzed by LC-MS/MS. Protein concentration was determined using the Pierce® BCA Protein Assay Kit. All experiments were performed in triplicate.
as §1

OATP1B3 = target: T2, OATP1B3 (Homo sapiens, UniProt Q9NPD5); test: cell-based; conditions: 100 μM
T2 sequence (Q9NPD5 1-702): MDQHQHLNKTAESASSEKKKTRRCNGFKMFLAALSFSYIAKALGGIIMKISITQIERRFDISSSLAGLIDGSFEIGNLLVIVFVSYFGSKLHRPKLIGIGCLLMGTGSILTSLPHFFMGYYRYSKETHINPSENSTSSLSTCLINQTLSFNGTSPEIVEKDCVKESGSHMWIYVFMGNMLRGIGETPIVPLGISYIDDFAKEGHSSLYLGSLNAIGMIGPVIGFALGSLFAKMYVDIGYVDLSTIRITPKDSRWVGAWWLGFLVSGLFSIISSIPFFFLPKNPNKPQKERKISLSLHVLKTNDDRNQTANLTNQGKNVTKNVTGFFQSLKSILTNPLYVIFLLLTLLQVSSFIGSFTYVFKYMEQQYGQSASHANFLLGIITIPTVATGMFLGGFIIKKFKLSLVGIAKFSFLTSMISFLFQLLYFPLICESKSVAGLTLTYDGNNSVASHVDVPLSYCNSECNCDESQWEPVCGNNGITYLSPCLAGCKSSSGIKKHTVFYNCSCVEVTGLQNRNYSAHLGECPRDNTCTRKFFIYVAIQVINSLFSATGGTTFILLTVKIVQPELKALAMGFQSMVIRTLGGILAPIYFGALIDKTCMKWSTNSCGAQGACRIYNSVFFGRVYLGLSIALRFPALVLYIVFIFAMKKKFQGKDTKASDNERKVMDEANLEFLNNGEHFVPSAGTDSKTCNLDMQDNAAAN
Description: as §2, §1

[8] = system: human primary hepatocytes; test: Cytotoxicity (MTT, AST, LDH) in cryopreserved human hepatocytes; assay type: cell-based; conditions: 24 and 96 h incubation
Description: Cytotoxicity was determined with MTT assay in cryopreserved human hepatocytes. Thawing and plating of cryopreserved hepatocytes were carried out according to the manufacturer’s protocol. […] 11 μL of 5 mg/ml MTT was added to each well of the plate, and then the plate was incubated at 37°C for 3–4 h. After the medium was aspirated, 150 μL of DMSO was added to dissolve the formazan. The absorbance at 570 nm was measured and corrected for background absorption at 690 nm using a SpectraMax® i3 plate reader (Molecular Devices, Silicon Valley, CA, United States). AST and LDH levels in the medium of parallel processed plates were measured by commercially available assay kits. […] All experiments were performed in triplicate.

[9] = substrate cerivastatin, read-out: IC50 OTAP1B1 (cerivastatin, CER, as substrate)
[10] = substrate estrone sulfate, read-out: IC50 OTAP1B1 (estrone sulfate, ES, as substrate)

## COC(=O)[C@H](c1ccccc1Cl)N1CCC2SC(=O)C=C2C1 (stereo partly drawn) [2-Oxo clopidogrel, 2-oxo clopidogrel]
OATP1B1 [1]; [9]
  IC50: 8.18 µM
OATP1B1 [1]; [10]
  IC50: 8.97 µM
[2]; 300 mg CP, ref Kim et al. (2016)
  I1, peak plasma concentration at steady state: 0.016 [Kim et al. (2016)] μM
[3]
  fu, fraction unbound in human plasma: 0.02 [Tornio et al. (2014)]
[4]; 75 mg CP, calculated from I1 at 300 mg assuming linear pharmacokinetics
  I1, peak plasma concentration at steady state: 0.004 µM
[4]; 75 mg CP
  Imax,u, unbound steady-state plasma peak concentration: 0.00008 µM
[4]; 300 mg CP
  Imax,u, unbound steady-state plasma peak concentration: 0.0003 µM

## O=C(O)[C@H](c1ccccc1Cl)N1CCc2sccc2C1 [CPC, clopidogrel carboxylic acid]
[2]; ref Sanofi-Aventis, 2011
  Elimination half-life: 8 h
[5]; Group I: single i.v. RSV 5 mg/kg + multiple p.o. CP 27 mg/kg
  AUC0–12h: 299,764 ± 153,504.1 ng×h/mL
[5]; Group III: single p.o. RSV 5 mg/kg + multiple p.o. CP 27 mg/kg
  AUC0–12h: 230,181 ± 109,005.9 ng×h/mL
[5]; rats, at 12 h post-dose
  Plasma exposure: remains high
[3]
  fu, fraction unbound in human plasma: 0.06 [Tornio et al. (2014)]

## O=C(O)[C@H]1O[C@@H](OC(=O)[C@H](c2ccccc2Cl)N2CCc3sccc3C2)[C@H](O)[C@@H](O)[C@@H]1O [Clopidogrel acyl glucuronide, clopidogrel acyl-β-D-glucuronide]
OATP1B1 [1]; [9]
  IC50: 10.9 µM
OATP1B1 [1]; [10]
  IC50: 33.5 µM
[2]; 75 mg CP, ref Itkonen et al. (2015)
  I1, peak plasma concentration at steady state: 1.72 [Itkonen et al. (2015)] μM
[2]; 300 mg CP, ref Itkonen et al. (2015)
  I1, peak plasma concentration at steady state: 4.77 [Itkonen et al. (2015)] μM
[3]
  fu, fraction unbound in human plasma: 0.1 [Tornio et al. (2014)]
[4]; 75 mg CP
  Imax,u, unbound steady-state plasma peak concentration: 0.172 µM
[4]; 300 mg CP
  Imax,u, unbound steady-state plasma peak concentration: 0.477 µM

## CC(C)n1c(/C=C/C(O)CC(O)CC(=O)O)c(-c2ccc(F)cc2)c2ccccc21 (stereo not drawn) [fluvastatin]
[6]
  Effect of concomitant CP on plasma concentration of the statin: did not change

## O=C(O)C[C@H](O)C[C@H](O)/C=C/c1c(C2CC2)nc2ccccc2c1-c1ccc(F)cc1 [pitavastatin]
[6]
  Effect of concomitant CP on plasma concentration of the statin: did not change

## CO[C@H]1/C=C/O[C@@]2(C)Oc3c(C)c(O)c4c(O)c(c(/C=N/N5CCN(C)CC5)c(O)c4c3C2=O)NC(=O)/C(C)=C\C=C\[C@H](C)[C@H](O)[C@@H](C)[C@@H](O)[C@@H](C)[C@H](OC(C)=O)[C@@H]1C [rifampin]
OATP1B1 [7]
  Inhibition of RSV uptake by OATP1B1 cells (positive control): significantly inhibited
OATP1B3
  Inhibition of RSV uptake by OATP1B3 cells (positive control): significantly inhibited

## CC/C(=C(\c1ccccc1)c1ccc(OCCN(C)C)cc1)c1ccccc1 [tamoxifen]
[8]
  Cytotoxicity (MTT): Dose-dependent cytotoxicity
